The target in this assay is human recombinant H-PGDS (Homo sapiens, UniProt O60760). Briefly: Fluorescence intensity h-PGDS TBA enzyme assay (PGH2 depletion, MDA/TBA fluorescence). The class given is biochemical. To be noted: 1:175,000 human recombinant H-PGDS, 42 second reaction, 3-fold serial dilutions, highest concentration typically 1 μM. An outline of the steps: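 Recombinant human H-PGDS preincubated with inhibitor 10 min at room temperature in pH 8.0 Tris, MgCl2, IgG, 2.5 mM glutathione, 0.5% DMSO. Reaction with 5.0 μM PGH2 stopped at 42 s with FeCl2/citric acid; MDA–TBA fluorescence (ex 530/em 565 nm) read after 70° C. IC50 by 4-parameter fit, 11 concentrations.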
Sequence of human recombinant H-PGDS (O60760 whole entry): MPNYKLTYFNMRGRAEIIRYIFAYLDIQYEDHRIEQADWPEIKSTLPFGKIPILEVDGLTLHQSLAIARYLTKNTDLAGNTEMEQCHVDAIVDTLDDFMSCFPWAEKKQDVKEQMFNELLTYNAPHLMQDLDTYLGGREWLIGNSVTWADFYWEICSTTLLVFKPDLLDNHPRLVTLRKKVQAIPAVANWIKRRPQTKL

From patent publication US20100173888A1 (Pfizer Inc, priority 2008, published 2010) come the findings set out here.

Counter-ions that a name gives are not always drawn.

On to `O=C(N[C@H]1CCC[C@@H](NC(=O)N2CCOCC2)C1)c1ccc(-c2cccc(F)c2)nc1` (relative stereo) [Example 267], for which the IC50 was determined as 11 nM.

As to `CN(C)C(=O)C1(C#N)CCCC(NC(=O)c2ccc(-c3cccc(F)c3)nc2)C1` (stereo not drawn) [Example 266, N-[3-Cyano-3-(dimethylcarbamoyl)cyclohexyl]-6-(3-fluorophenyl)nicotinamide], the IC50 was found to be 10.6 nM. With `O=C(NC1CCCC1)c1ccc(-c2cccc(F)c2)nc1` [Example 9, N-Cyclopentyl-6-(3-fluorophenyl)nicotinamide], the IC50 worked out at 7.11 nM. Then `O=C(N[C@H]1CC[C@@H](C(=O)N2CC[C@H](F)C2)C1)c1ccc(-c2cccc(F)c2)nc1` [Example 159, 6-(3-fluorophenyl)-N-[(1S,3R)-3-{[(3S)-3-fluoropyrrolidin-1-yl]carbonyl}cyclopentyl]nicotinamide], with 4.9 nM; and `C[C@H](O)C(=O)N[C@@H]1CCC[C@H](NC(=O)c2ccc(-c3cccc(F)c3)nc2)C1` [Example 206, 6-(3-Fluorophenyl)-N-{cis-3-{[(2S)-2-hydroxypropanoyl]amino}cyclohexyl]nicotinamide], with 13.5 nM. As for `O=C(N[C@H]1CCC[C@@H](CN2CC(O)C2)C1)c1ccc(-c2cccc(F)c2)nc1` (stereo in doubt) [Example 256, 6-(3-Fluorophenyl)-N-{(1S,3R)-3-[(3-hydroxyazetidin-1-yl)methyl]cyclohexyl}nicotinamide], the IC50 came to 44.1 nM. As for `O=C(N[C@@H]1CC[C@H](C(=O)N2CCN(CCO)CC2)C1)c1ccc(-c2cccc(F)c2)nc1` [Example 184], the concentration for half-maximal inhibition (IC50) stood at 20.3 nM.

On to `CN(C)CC(=O)N[C@H]1CC[C@H](NC(=O)c2ccc(-c3cccc(F)c3)nc2)CC1` [Example 145, N-{trans-4-[(N,N-Dimethylglycyl)amino]cyclohexyl}-6-(3-fluorophenyl)nicotinamide], for which the IC50 was determined as 11.6 nM. The result for `O=C(N[C@@H]1CCC[C@H](CO)C1)c1ccc(-c2cccc(F)c2)nc1` (relative stereo) [Example 251A] reads 13.3 nM; that for `CC(=O)NC(C)[C@H]1CC[C@H](NC(=O)c2ccc(-c3cccc(F)c3)nc2)CC1` (stereo partly drawn) [Example 147, N-[trans-4-(1-Acetamidoethyl]cyclohexyl]-6-(3-fluorophenyl)nicotinamide], 5.7 nM. In the case of `CN(C(=O)[C@H]1CC[C@H](NC(=O)c2ccc(-c3cccc(F)c3)nc2)CC1)C1CCNCC1` [Example 211, 6-(3-Fluorophenyl)-N-{trans-4-[methyl(piperidin-4-yl)carbamoyl]cyclohexyl}nicotinamide], the IC50 came out at 13 nM. As to `O=C(N[C@@H]1CC[C@H](C(=O)N2CC[C@@H](F)C2)C1)c1ccc(-c2cccc(F)c2)nc1` [Example 180, 6-(3-Fluorophenyl)-N-[(1R,3S)-3-{[(3R)-3-fluoropyrrolidin-1-yl]carbonyl}cyclopentyl]nicotinamide], the IC50 is 8.9 nM. Turning to `CCN1CCC(CNC(=O)[C@H]2CC[C@H](NC(=O)c3ccc(-c4cccc(F)c4)nc3)CC2)C1` (relative stereo) [Example 113F, N-(trans-4-{[(1-ethylpyrrolidin-3-yl)methyl]carbamoyl}cyclohexyl)-6-(3-fluorophenyl)nicotinamide], the IC50 is 60 nM. Consider `CS(=O)(=O)NC[C@H]1CC[C@H](NC(=O)c2ccc(-c3cccc(F)c3)nc2)CC1` [Example 150, 6-(3-Fluorophenyl)-N-[trans 4(methanesulfonylaminomethyl)cyclohexyl]nicotinamide], for which the IC50 amounted to 8.9 nM. `N[C@@H]1[C@H]2CN(C(=O)[C@H]3CCC[C@@H](NC(=O)c4ccc(-c5cccc(F)c5)nc4)C3)C[C@@H]12` [Example 190, N-cis-3-{[(1R,5S,6S)-6-Amino-3-azabicyclo[3.1.0]hex-3-yl]carbonyl}cyclohexyl]-6-(3-fluorophenyl)nicotinamide hydrochloride]: the IC50 was 17.5 nM. Then `CN1CCCC(C(=O)N[C@H]2CC[C@@H](NC(=O)c3ccc(-c4cccc(F)c4)nc3)CC2)C1` (relative stereo) [Example 219, 6-(3-fluorophenyl)-N-(cis-4-{[(1-methylpiperidin-3-yl)carbonyl]amino}cyclohexyl)nicotinamide], with 32.7 nM. The result for `CC(O)[C@H]1CC[C@H](NC(=O)c2ccc(-c3cccc(F)c3)nc2)CC1` (stereo partly drawn) [Example 215, 6-(3-Fluorophenyl)-N-[trans-4-(1-hydroxyethyl)cyclohexyl]nicotinamide] reads 5.9 nM; that for `CNC(=O)N[C@H]1CC[C@@H](NC(=O)c2ccc(-c3cccc(F)c3)nc2)CC1` [Example 236, 6-(3-Fluorophenyl)-N-{cis-4-[(methylcarbamoyl)amino]cyclohexyl}nicotinamide], 5.7 nM; that for `CNCCNC(=O)[C@H]1CCC[C@@H](NC(=O)c2ccc(-c3cccc(F)c3)nc2)C1` (relative stereo) [Example 189, 6-(3-Fluorophenyl)-N-cis-3-{([2-(methylamino)ethyl]carbamoyl}cyclohexyl]nicotinamide], 13.7 nM. Take `C[C@H](O)C(=O)N[C@H]1CCC[C@H](NC(=O)c2ccc(-c3cccc(F)c3)nc2)C1` [Example 246, 6-(3-Fluorophenyl)-N-{trans-3-{[(2S)-2-hydroxypropanoyl]amino}cyclohexyl]nicotinamide]: the IC50 is 16.2 nM. Turning to `CCC(O)CNC(=O)[C@H]1CCC[C@@H](NC(=O)c2ccc(-c3cccc(F)c3)nc2)C1` (stereo partly drawn) [Example 197], the IC50 worked out at 10.2 nM. For `CC(C)(O)[C@H]1CC[C@@H](NC(=O)c2ccc(-c3cccc(F)c3)nc2)CC1` [Example 275, 6-(3-Fluorophenyl)-N-[cis-4-(1-hydroxy-1-methylethyl)cyclohexyl]nicotinamide], the IC50 was determined as 81.8 nM. The result for `O=C(N[C@H]1CC[C@H](C(=O)N[C@@H]2CCOC2)CC1)c1ccc(-c2cccc(F)c2)nc1` [Example 113E, 6-(3-fluorophenyl)-N-{trans-4-[(3R)-tetrahydrofuran-3-ylcarbamoyl]cyclohexyl}nicotinamide] reads 8.8 nM. For the compound `O=CN[C@H]1CC[C@H](NC(=O)c2ccc(-c3cccc(F)c3)nc2)CC1` [Example 113O, 6-(3-fluorophenyl)-N-(trans-4-formamidocyclohexyl)nicotinamide], the IC50 was 7.3 nM. Then `NC(=O)[C@H]1CC[C@@H](NC(=O)c2ccc(-c3cccc(F)c3)nc2)C1` [Example 186, N-[(1R,3S)-3-Carbamoylcyclopentyl]-6-(3-fluorophenyl)nicotinamide], with 23.9 nM; and `COC(=O)C1(NC(=O)c2ccc(-c3cccc(C)c3)nc2)CC1` [Example 3, Methyl 1-({[6-(3-methylphenyl)pyridin-3-yl]carbonyl}amino)cyclopropanecarboxylate], with 246 nM.

In the case of `O=C(NC1CCCc2ccccc21)c1ccc(-c2ccccc2)nc1` (stereo not drawn) [Example 120, 6-Phenyl-N-(1,2,3,4-tetrahydronaphthalen-1-yl)nicotinamide], the IC50 is 1.77 nM. Then `C[C@H](CO)NC(=O)[C@@H]1CC[C@H](NC(=O)c2ccc(-c3cccc(F)c3)nc2)C1` [Example 164, 6-(3-Fluorophenyl)-N-{(1S,3R)-3-[(2-hydroxy-1-methylethyl)carbamoyl]cyclopentyl}nicotinamide], with 16.1 nM; and `N[C@H]1CCCC[C@H]1NC(=O)[C@H]1CC[C@H](NC(=O)c2ccc(-c3cccc(F)c3)nc2)CC1` [Example 113D, N-(trans-4-{[(1R,2S)-2-aminocyclohexyl]carbamoyl}cyclohexyl)-6-(3-fluorophenyl)nicotinamide], with 10.8 nM; and `CCN(C)C(=O)[C@@H]1CC[C@H](NC(=O)c2ccc(-c3cccc(F)c3)nc2)C1` [Example 157, N-{(1S,3R)-3-[ethyl(methyl)carbamoyl]cyclopentyl}-6-(3-fluorophenyl)nicotinamide], with 5.8 nM. `O=C(N[C@H]1CC[C@H](N2CCCC2)CC1)c1ccc(-c2cccc(F)c2)nc1` [Example 213, 6-(3-Fluorophenyl)-N-(trans-4-pyrrolidin-1-ylcyclohexyl)nicotinamide]: the IC50 came out at 36 nM. Consider `CN(C(=O)[C@@H]1CCC[C@H](NC(=O)c2ccc(-c3cccc(F)c3)nc2)C1)C1CCNCC1` (stereo in doubt) [Example 192, 6-(3-Fluorophenyl)-N-{(1S,3R)-3-[methyl(piperidin-4-yl)carbamoyl]cyclohexyl}nicotinamide], for which the half-maximal inhibitory concentration (IC50) was 15.3 nM. The result for `CNC(=O)OC(C)(C)[C@H]1CC[C@H](NC(=O)c2ccc(-c3cccc(F)c3)nc2)CC1` [Example 229, 1-[trans-4-({[6-(3-Fluorophenyl)pyridin-3-yl]carbonyl}amino)cyclohexyl]-1-methylethyl methylcarbamate] reads 2.5 nM; that for `O=C(CO)N[C@@H]1CCC[C@H](NC(=O)c2ccc(-c3cccc(F)c3)nc2)C1` (relative stereo) [Example 202], 17.1 nM; that for `COC[C@H]1CCC[C@H]1NC(=O)c1ccc(-c2cccc(F)c2)nc1` [Example 10], 94.3 nM. Turning to `CC(=O)N1CC(NC[C@H]2CCC[C@@H](NC(=O)c3ccc(-c4cccc(F)c4)nc3)C2)C1` (relative stereo) [Example 257], the IC50 came to 34.5 nM. For the compound `CC(C)(O)C(=O)N[C@H]1CC[C@H](NC(=O)c2ccc(-c3cccc(F)c3)nc2)CC1` [Example 143, 6-(3-Fluorophenyl)-N-{trans-4-[(2-hydroxy-2-methylpropanoyl)amino]cyclohexyl}nicotinamide], the IC50 was determined as 7.2 nM.

For the compound `O=C(NC1CCCCC1O)c1ccc(-c2cccc(F)c2)nc1` (stereo not drawn) [Example 17, 6-(3-Fluorophenyl)-N-(2-hydroxycyclohexyl)nicotinamide], the IC50 is 2.87 nM.

Take `O=C(NC1CCCCC1)c1ccc(-c2ccc(F)cc2)nc1` [Example 22, N-Cyclohexyl-6-(4-fluorophenyl)nicotinamide]: the half-maximal inhibitory concentration (IC50) came to 40.8 nM.

The IC50 is the concentration that inhibits the measured activity by half.
